Laboratory results reported in patent US11622951B2, “Alpha-aminoadipate for treatment of vision loss and restoring sight” (The Schepens Eye Research Institute, Inc., priority 2013, dated 2023).

Tests used:
[1] = test system: retinal glial cells (GFAP expression); test: GFAP immunolabeling of retinal glia after subretinal injection; assay type: in vivo, mouse; details: adult wild-type mice
Procedure: Mice were anesthetized by intraperitoneal injection of ketamine (62.5 mg/kg) and xylazine (12.5 mg/kg) and transcardially perfused with phosphate buffered saline (PBS) followed by 4% paraformaldehyde in PBS. Retinal flat-mounts or transverse retinal sections (14 μm) were preblocked with PBS containing 3% bovine serum albumin (Sigma-Aldrich, St. Louis, Mo.) and 0.3% Triton X (Sigma-Aldrich) and incubated, first, with primary antibody overnight, and then with secondary antibody for 1 hour at room temperature. […] Assessment of morphological integration were quantified by counting EGFP+ cells located outside of transplanted cell clusters in retinal whole-mounts. Statistical significance was determined by either the two tailed student t test or ANOVA.
Retinal astrocytes and Müller glia are central to the homeostatic and metabolic support of retinal neurons; whereas, after injury these cells develop glial scar that forms critical barriers to neuron regeneration and integration by retinal progenitor cells. […] Retinal glial morphology was examined by immunolabeling for glial marker GFAP and assessed the level of GFAP expression by Western blot at day 1-7 post injection. Expression of GFAP is widely detected in the normal mouse retinas (FIG. 1a).

[2] = test system: Müller glia; test: Electron microscopy count of Müller cell nuclei in retinal sections; assay type: in vivo, mouse; details: 3 days after subretinal injection 1 μg/μl, vs saline-injected group
Procedure: Mice were sacrificed 3 days after receiving the injection of α-AA (1 μg/μl) or saline as controls by injection of overdose of ketamine/xylazine followed by cervical dislocation, and the eyeballs were dissected, fixed with Karnovsky's fixative (pH 7.4) for 24 h. The quadrants of the eyes that received subretinal injection were dissected and embedded in Epon-Araldite. Semi-thin sections (1-2 μm) were stained with phenylenediamine phase staining. The sections were examined and photographed with a transmission electron microscope (EM410; Philips; Eindhoven, The Netherlands). Ten randomly selected retinal sections of each eye were photographed at 1900× magnification, and all Müller glial nuclei in the photomicrograph were counted.
Retinal sections were examined under electron microscopy, in which Müller glia were identified by their characteristic angular nuclei, dense chromatin and dark perinuclear cytoplasm (FIG. 1e-h). […] This was also confirmed by immunolabeling for specific markers of retinal neurons, including photoreceptors (recoverin) and amacrine cells (syntaxin) (FIG. 2).

[3] = test system: transplanted retinal progenitors; test: Differentiation of transplanted retinal progenitors in pretreated host retina (immunohistochemistry); assay type: in vivo, mouse; details: pretreated wild-type hosts, 21 days post transplantation
Procedure: Mice were anesthetized by intraperitoneal injection of ketamine (62.5 mg/kg) and xylazine (12.5 mg/kg) and transcardially perfused with phosphate buffered saline (PBS) followed by 4% paraformaldehyde in PBS. Retinal flat-mounts or transverse retinal sections (14 μm) were preblocked with PBS containing 3% bovine serum albumin (Sigma-Aldrich, St. Louis, Mo.) and 0.3% Triton X (Sigma-Aldrich) and incubated, first, with primary antibody overnight, and then with secondary antibody for 1 hour at room temperature. The following antibodies were used: Cy3-conjugated monoclonal antibody against GFAP (1:1000; Sigma), Brn-3b (1:200; Santa Cruz Biotechnology; Santa Cruz, Calif.), mouse anti-rhodopsin (1:4000; Rho1D4), chick anti-cone-opsin (1:300), and Cy-2, Cy-3 or Cy-5-conjugated secondary antibody (Jackson ImmunoResearch; West Grove, Pa.). Assessment of morphological integration were quantified by counting EGFP+ cells located outside of transplanted cell clusters in retinal whole-mounts. Statistical significance was determined by either the two tailed student t test or ANOVA.
At 2 days before transplantation, 2 μl of a solution containing either α-AA (1 μg/μl) or saline (control) was injected unilaterally into the subretinal space of recipient wild-type or Gnat1^−/− mice (>2 months old). […]

[4] = test system: cone photoreceptor cells; test: Cone opsin immunohistochemistry of retinal sections of Rho-/- mice; assay type: in vivo, mouse
Procedure: To determine if αAA induces functional neuroregeneration in Rho^−/− mice, αAA was injected subretinally into the left eyes of 6 week-old Rho^−/− mice, while their contralateral eyes were injected with saline and served as controls. After a 4 week survival period to allow regeneration of new photoreceptors, mouse ERG was measured in both eyes and then performed immunohistochemistry to identify photoreceptor cells. Rho^−/− mice lack the rod photoreceptor cell component or ERG a-wave. As cones consist of ˜3% of photoreceptors in mice, it is difficult to assess cone action a-wave; therefore, flicker ERG photometry under cone-isolation conditions was used to measure cone functions. […] The ERG b-wave arises from neural activity downstream of photoreceptors, its presence in the αAA treated eye has a very important implication: not only is the treatment creating new or preserving existing photoreceptors, such photoreceptors are integrating into the existing retinal circuitry in such a way as to elicit activity in downstream neurons (most likely bipolar cells). […] Consistent with the presence of ERG b-waves in αAA-treated eye, light-elicited spiking responses in some of the ganglion cells were observed (n=4/9) (FIG. 15 A, B). […] In contrast, no light-elicited responses in ganglion cells were recorded from the saline-injected eyes (n=4/4, FIG. 14C). […]

[5] = test system: Muller cells; test: Müller cell proliferation and trans-differentiation in diseased eyes of Rho-/- mice; assay type: in vivo, mouse; details: administered directly to the diseased eyes of Rho-/- mice
Source text: Photoreceptor cell death can be measured or assessed by electroretinography, and a reduction or absence of a-wave and/or b-waves. […] Furthermore, proliferating Muller cells were also shown to be capable of trans-differentiating into retinal progenitor cells (expressing retinal progenitor markers).

[6] = test system: Muller cells; details: wild-type mice with normal retinas, Takeda et al. 2009; cited from earlier work

**Q.** With `NC(CCCC(=O)O)C(=O)O` (stereo not drawn) [α-AA, alpha-aminoadipate] as the compound, how does the “GFAP immunostaining at the injection site” value ([1]; by day 7 post injection) read?
**A.** The value was “reappeared at the injection site”.

**Q.** What about the “GFAP expression around the injection site (immunolabeling)” value ([1]; single subretinal injection 1 μg/μl, 1-3 days post injection) of the same compound?
**A.** The value was “effectively eliminated GFAP expression”.

**Q.** What about the “reduction in counts of Müller cell nuclei” value [2] of the same compound?
**A.** The value was 30%.

**Q.** And the “EGFP+ cells integrated into the ONL cone-opsin positive” value [3]?
**A.** Its value is 12%.

**Q.** What about the “EGFP+ cells integrated into the ONL positive for rhodopsin” value [3] of the same compound?
**A.** The value was “Approximately 80%”.

**Q.** What about the retinal neuron damage ([4]; single intraocular injection) of the same compound?
**A.** Its retinal neuron damage is “does not cause apparent retinal neuron damage”.

**Q.** What about the “number of cone photoreceptor cells” value ([4]; single subretinal injection at 6 weeks old, vs saline-treated control) of the same compound?
**A.** The value was “increased number of cone photoreceptor cells”.

**Q.** And the “proliferation of Muller cells” value [5]?
**A.** The value was “resulted in proliferation of Muller cells”.

**Q.** What about the “Muller cell proliferation in the retina” value [6] of the same compound?
**A.** Its value is “can stimulate Muller cell proliferation”.
